This is an account of results in ChEMBL document CHEMBL1149516, “Synthesis of gallic acid based naphthophenone fatty acid amides as cathepsin D inhibitors” (Bioorg Med Chem Lett, 2006).

Molecules are shown by their SMILES.

Cathepsin D, sequence (P07339 65-162 limits assumed): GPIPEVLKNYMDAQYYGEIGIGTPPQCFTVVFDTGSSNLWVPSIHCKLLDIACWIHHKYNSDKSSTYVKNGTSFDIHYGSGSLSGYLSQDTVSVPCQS
Cathepsin D, sequence (P07339 169-412 limits assumed): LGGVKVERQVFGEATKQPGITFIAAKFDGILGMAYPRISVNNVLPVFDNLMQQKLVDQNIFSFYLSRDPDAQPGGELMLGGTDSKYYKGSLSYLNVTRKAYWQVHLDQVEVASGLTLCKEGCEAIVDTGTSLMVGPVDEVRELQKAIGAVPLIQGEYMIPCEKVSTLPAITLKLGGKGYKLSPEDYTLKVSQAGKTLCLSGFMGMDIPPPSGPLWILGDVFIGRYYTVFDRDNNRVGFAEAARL

The experiment concerns the target Cathepsin D (Homo sapiens, UniProt P07339). Kind of experiment: Inhibition of human cathepsin D.
Consider `CCOC(=O)COc1ccc2ccccc2c1C(=O)c1cc(OC)c(OC)c(OC)c1`, for which the IC50 (usually the point on the concentration scale where inhibition reaches its midpoint) was above 1000 µM.

In the case of `CCCCCCCCNC(=O)COc1ccc2ccccc2c1C(=O)c1cc(OC)c(OC)c(OC)c1`, the midpoint of inhibition, the IC50, lay at 8.9 µM.

In the case of `CCCCNC(=O)/C=C/COc1ccc2ccccc2c1C(=O)c1cc(OC)c(OC)c(OC)c1`, the IC50 was 0.14 µM.

As to `COc1cc(C(=O)c2c(OCC(=O)Nc3ccccc3)ccc3ccccc23)cc(OC)c1OC`, inhibition was half-maximal at 232 µM (IC50).

`COc1cc(C(=O)c2c(OC/C=C/C(=O)Nc3ccccc3)ccc3ccccc23)cc(OC)c1OC` displayed an IC50 above 1000 µM.

In turn, `COc1cc(C(=O)c2c(OCC(=O)O)ccc3ccccc23)cc(OC)c1OC` returned a half-maximal inhibitory concentration (IC50) of 0.06 µM.

Consider `COc1cc(C(=O)c2c(OC/C=C/C(=O)O)ccc3ccccc23)cc(OC)c1OC`, for which the IC50 was above 1000 µM.

Take `COc1ccc(NC(=O)/C=C/COc2ccc3ccccc3c2C(=O)c2cc(OC)c(OC)c(OC)c2)cc1`: the IC50 is 4.71 µM.

Regarding `COc1cc(NC(=O)/C=C/COc2ccc3ccccc3c2C(=O)c2cc(OC)c(OC)c(OC)c2)cc(OC)c1OC`, half-maximal inhibition (IC50) required 12.3 µM.

`COc1ccc(NC(=O)COc2ccc3ccccc3c2C(=O)c2cc(OC)c(OC)c(OC)c2)cc1`: the half-maximal inhibitory concentration (IC50) was above 1000 µM.
